Data as given in patent US12383551B2, “Methods and compositions for maintaining opioid efficacy in the treatment of pain” (East Carolina University, priority 2017, dated 2025).

What was measured:
sham or SCI animals = assay: Conditioned Place Preference (CPP), addictive potential; details: for CPP to morphine: added to morphine at either dose (1.0 or 2.5 mg/kg), sham or SCI animals
Experimental: Methods: 55 female, Long-Evans rats were tested for mechanical thresholds prior to receiving a spinal contusion (SCI) or sham surgery. […] Conditioned Place Preference (CPP) to each drug combination was assessed to determine the addictive potential of that specific combination.
Mechanical thresholds were assessed in 3-5 month old female Long-Evans rats before and ˜21 days after a mild, traumatic SCI (contusion model). […] Conditioned place preference was performed under each drug condition (5 days alternating drug/vehicle pairing, with testing on day 6).

[1] = system: rat model of chronic neuropathic pain; assay: Pain withdrawal responses in a rat model of chronic neuropathic pain (pilot studies); assay type: in vivo; details: low-dose morphine
sham animals = assay: Mechanical pain thresholds / analgesia in sham (healthy control) animals; assay type: in vivo, Long-Evans rats; details: FIG. 2 Panel A, acute treatment
Experimental: (§1) Methods: 55 female, Long-Evans rats were tested for mechanical thresholds prior to receiving a spinal contusion (SCI) or sham surgery. Mechanical pain thresholds were measured 21-27 days post-surgery under the following conditions: Morphine alone (1.0 or 2.5 mg/kg); Morphine (1.0 or 2.5 mg/kg)+0.1 mg/kg Pramipexole (PRAM; D3R agonist); Morphine (2.5 mg/kg)+0.1 mg/kg SCH23390 (SCH: D1R antagonist); 0.1 mg/kg Pramipexole alone; 0.1 mg/kg SCH23390 alone. Conditioned Place Preference (CPP) to each drug combination was assessed to determine the addictive potential of that specific combination.
(§2) Mechanical thresholds were assessed in 3-5 month old female Long-Evans rats before and ˜21 days after a mild, traumatic SCI (contusion model). Thresholds were re-assessed after i.p. injection of: Morphine 1.0 mg/kg with and without 0.1 mg/kg pramipexole (PRAM) or Morphine 2.5 mg/kg with and without 0.1 mg/kg PRAM. Conditioned place preference was performed under each drug condition (5 days alternating drug/vehicle pairing, with testing on day 6). Western blotting determined expression of D3R, D1R and u-opioid receptor (MOR) in the lumbar spinal cord.

SCI animals = assay: Mechanical pain thresholds / analgesia in animals with spinal cord injury (contusion model); assay type: in vivo, Long-Evans rats; details: FIG. 2 Panel B
Experimental: as §1, §2

## CCCN[C@H]1CCc2nc(N)sc2C1 [PRAM, pramipexole]
Sham or SCI animals
  CPP to morphine: Neither PRAM nor SCH exacerbated CPP to morphine

## CN1CCc2cc(Cl)c(O)cc2[C@@H](c2ccccc2)C1 [SCH, SCH23390]
Sham or SCI animals
  CPP to morphine: Neither PRAM nor SCH exacerbated CPP to morphine

## CN1CC[C@]23c4c5ccc(O)c4O[C@H]2[C@@H](O)C=C[C@H]3[C@H]1C5 [morphine]
[1]
  modulating pain withdrawal responses / opioid efficacy: became ineffective
Sham animals
  analgesia: improves analgesia significantly
Sham or SCI animals; FIG. 4
  preference for the drug-paired chamber: induces preference for the drug-paired chamber
animals; FIG. 3, long-term application, 2 weeks
  analgesic effect after long-term application: complete loss of analgesic effect after 2 weeks
animals; parallel preliminary studies
  development of morphine tolerance: became tolerant
SCI animals
  analgesia: neither morphine nor PRAM have any analgesic effect
